From ChEMBL document CHEMBL4229543, “Squaramides as novel class I and IIB histone deacetylase inhibitors for topical treatment of cutaneous t-cell lymphoma” (Bioorg Med Chem Lett, 2018)

Molecular target: T1, NAD-dependent protein deacetylase sirtuin-7 (Homo sapiens, UniProt Q9NRC8)
T1 sequence (Q9NRC8 whole entry): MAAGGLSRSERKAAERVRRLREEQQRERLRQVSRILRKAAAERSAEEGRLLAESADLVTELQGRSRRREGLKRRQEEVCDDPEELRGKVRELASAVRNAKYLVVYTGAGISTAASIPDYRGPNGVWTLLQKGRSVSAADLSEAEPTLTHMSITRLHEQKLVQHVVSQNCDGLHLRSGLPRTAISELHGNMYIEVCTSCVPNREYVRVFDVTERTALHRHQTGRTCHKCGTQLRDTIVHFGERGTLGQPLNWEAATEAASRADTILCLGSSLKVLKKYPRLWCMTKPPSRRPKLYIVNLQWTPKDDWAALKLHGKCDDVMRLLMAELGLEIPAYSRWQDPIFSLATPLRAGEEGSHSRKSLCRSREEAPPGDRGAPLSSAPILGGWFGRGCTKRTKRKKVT
Experiment: Inhibition of SIRT7 (unknown origin)

| Ki [nM] | SMILES |
| --- | --- |
| > 10000 | CC(Nc1c(NCCCCCC(=O)NO)c(=O)c1=O)C12CC3CC(CC(C3)C1)C2 (stereo unspecified) |
| > 10000 | COc1ccc(Nc2c(NCCCCCC(=O)NO)c(=O)c2=O)cc1 |
| > 10000 | CC(C)(CCCCC(=O)NO)Nc1c(Nc2ccc(C(F)(F)F)cc2)c(=O)c1=O |

Molecular target: T2, Histone deacetylase 8 (Homo sapiens, UniProt Q9BY41)
T2 sequence (Q9BY41 whole entry): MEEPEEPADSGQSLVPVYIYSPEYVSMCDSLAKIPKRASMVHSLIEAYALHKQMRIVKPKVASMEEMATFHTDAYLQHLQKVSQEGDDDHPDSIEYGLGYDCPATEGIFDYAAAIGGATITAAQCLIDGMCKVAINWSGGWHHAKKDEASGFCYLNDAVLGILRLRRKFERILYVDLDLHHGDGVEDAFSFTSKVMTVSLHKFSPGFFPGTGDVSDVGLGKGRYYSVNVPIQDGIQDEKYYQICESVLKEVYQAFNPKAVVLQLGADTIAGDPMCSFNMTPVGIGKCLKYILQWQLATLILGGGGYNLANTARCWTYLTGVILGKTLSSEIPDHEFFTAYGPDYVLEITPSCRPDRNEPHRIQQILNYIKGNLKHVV
Experiment: Inhibition of human recombinant HDAC8 using fluorogenic HDAC substrate after 15 mins by fluorimetrc method

| Ki [nM] | SMILES |
| --- | --- |
| 320 | CC(Nc1c(NCCCCCC(=O)NO)c(=O)c1=O)C12CC3CC(CC(C3)C1)C2 (stereo unspecified) |
| 100 | COc1ccc(Nc2c(NCCCCCC(=O)NO)c(=O)c2=O)cc1 |
| 110 | CC(C)(CCCCC(=O)NO)Nc1c(Nc2ccc(C(F)(F)F)cc2)c(=O)c1=O |
